Measurements: US10953027B2, “Active agents and methods of their use for the treatment of metabolic disorders and nonalcoholic fatty liver disease” (Flagship Pioneering Innovations V, Inc., priority 2018, dated 2021)

Key:
Assay type in all cases: in vitro ADME
[1] = Assay 2. Stability in Simulated Intestinal Fluid (SIF); details: 1 μM, 37° C., SIF pH 6.7 with pancreatin
Outline: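 Acylated compounds at 1 μM (from 1 mM DMSO stock) in fresh SIF: FaSSIF with pancreatin in pH 6.7 phosphate buffer, agitated at 37 °C. Aliquots from T0 onward quenched with 1 volume acetonitrile; LC/MS gives degradation rates.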

[2] = Assay 3. Fecal Incubation Stability; details: 1 or 10 μM, human fecal slurry, anaerobic
Procedure: Assay 3. Fecal Incubation Stability. This assay was used to assess the stability of an acylated active agent in a large intestine. All experiments were performed in an anaerobic chamber containing 90% nitrogen, 5% hydrogen and 5% carbon dioxide. Human fecal matter in a slurry (15% WV) is added to 96 well plates containing YCFA media or other suitable media (1.6 mL). Compounds were added to each individual well to reach a final analyte concentration of 1 or 10 μM, and the material was mixed by pipetting. At set time points a sample was removed, quenched with acetonitrile, and analyzed by LC/MS.

[3] = Assay 1. Stability in Simulated Gastric Fluid (SGF); details: 1 μM, 37° C., SGF pH 1.6 with pepsin
Outline: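 Acylated compounds at a final 1 μM (diluted from 1 mM DMSO stock) were incubated at 37 °C in SGF of pH 1.6 NaCl buffer with FaSSIF powder and 0.1 mg/mL pepsin. Aliquots were quenched with acetonitrile at T0 and regular intervals, and degradation rates were determined by LC/MS.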

CCC(=O)O[C@H]1[C@H](OC(=O)CC)[C@H](OC(=O)CCc2c[nH]c3ccccc23)O[C@@H](C)[C@H]1OC(=O)CC [Compound 155, (2S,3S,4R,5R,6S)-6-methyl-3,4,5-tris(propanoyloxy)oxan-2-yl 3-(1H-indol-3-yl)propanoate]
Assay 2 (SIF) (% @ Remaining 4 hours) [1]: C (C: >75% of the tested compound remaining)
Assay 3 (% Remaining at 24 h) [2]: A (A: <25% of the tested compound remaining)

CCC(=O)OC[C@H]1O[C@@H](OC)[C@H](OC(=O)CC)[C@@H](OC(=O)CC)[C@@H]1OC(=O)CC [Compound 92, [(2R,3R,4S,5R,6R)-6-methoxy-3,4,5-tris(propanoyloxy)oxan-2-yl]methyl Propanoate]
Assay 2 (SIF) (% @ Remaining 4 hours) [1]: A (A: <25% of the tested compound remaining)
Assay 3 (% Remaining at 24 h) [2]: A (A: <25% of the tested compound remaining)

O=C(CCc1c[nH]c2ccccc12)Oc1ccc2c(c1)oc(=O)c1cc(OC(=O)CCc3c[nH]c4ccccc34)c(OC(=O)CCc3c[nH]c4ccccc34)cc12 [Compound 246, 8,9-bis({[3-(1H-indol-3-yl)propanoyl]oxy})-6-oxo-6H-benzo[c]chromen-3-yl 3-(1H-indol-3-yl)propanoate]
Assay 2 (SIF) (% @ Remaining 4 hours) [1]: B (B: 25-75% of the tested compound remaining)
Assay 3 (% Remaining at 24 h) [2]: B (B: 25-75% of the tested compound remaining)

[2H]C([2H])([2H])C([2H])([2H])CC(=O)O[C@@H]1[C@@H](OC(=O)CC([2H])([2H])C([2H])([2H])[2H])[C@H](Oc2ccc(N)cc2C(=O)O)OC[C@H]1O [Compound 234, 5-amino-2-{[(2S,3R,4S,5R)-3,4-bis[(3,3,4,4,4-^2H5)butanoyloxy]-5-hydroxyoxan-2-yl]oxy}benzoic Acid]
Assay 3 (% Remaining at 24 h) [2]: B (B: 25-75% of the tested compound remaining)

CCCC(=O)OC[C@H]1O[C@@H](OC)[C@H](OC(=O)CCC)[C@@H](OC(=O)CCC)[C@H]1OC(=O)CCC [Compound 93, [(2R,3S,4S,5R,6R)-3,4,5-tris(butanoyloxy)-6-methoxyoxan-2-yl]methyl Butanoate]
Assay 2 (SIF) (% @ Remaining 4 hours) [1]: A (A: <25% of the tested compound remaining)
Assay 3 (% Remaining at 24 h) [2]: A (A: <25% of the tested compound remaining)

CCCC(=O)Oc1ccc2c(c1)oc(=O)c1cc(OC(=O)CCC)c(OC(=O)CCC)cc12 [Compound 248, 8,9-bis(butanoyloxy)-6-oxo-6H-benzo[c]chromen-3-yl Butanoate]
Assay 3 (% Remaining at 24 h) [2]: A (A: <25% of the tested compound remaining)

C[C@@H]1O[C@@H](OC(=O)CCc2c[nH]c3ccccc23)[C@@H](OC(=O)CCc2c[nH]c3ccccc23)[C@H](OC(=O)CCc2c[nH]c3ccccc23)[C@@H]1OC(=O)CCc1c[nH]c2ccccc12 [Compound 97, (2S,3S,4R,5R,6S)-3,4,5-tris({[3-(1H-indol-3-yl)propanoyl]oxy})-6-methyloxan-2-yl 3-(1H-indol-3-yl)propanoate]
Assay 2 (SIF) (% @ Remaining 4 hours) [1]: A (A: <25% of the tested compound remaining)
Assay 3 (% Remaining at 24 h) [2]: A (A: <25% of the tested compound remaining)

O=C(CCc1c[nH]c2ccccc12)O[C@H]1OC[C@H](OC(=O)CCc2c[nH]c3ccccc23)[C@H](OC(=O)CCc2c[nH]c3ccccc23)[C@H]1OC(=O)CCc1c[nH]c2ccccc12 [Compound 181, (2R,3R,4S,5S)-3,4,5-tris({[3-(1H-indol-3-yl)propanoyl]oxy})oxan-2-yl 3-(1H-indol-3-yl)propanoate]
Assay 2 (SIF) (% @ Remaining 4 hours) [1]: A (A: <25% of the tested compound remaining)
Assay 3 (% Remaining at 24 h) [2]: A (A: <25% of the tested compound remaining)

O=C(Cc1c[nH]c2ccccc12)O[C@@H]1OC[C@H](OC(=O)Cc2c[nH]c3ccccc23)[C@H](OC(=O)Cc2c[nH]c3ccccc23)[C@H]1OC(=O)Cc1c[nH]c2ccccc12 [Compound 178, (2S,3R,4S,5S)-3,4,5-tris({[2-(1H-indol-3-yl)acetyl]oxy})oxan-2-yl 2-(1H-indol-3-yl)acetate]
Assay 3 (% Remaining at 24 h) [2]: A (A: <25% of the tested compound remaining)

O=C(Cc1c[nH]c2ccccc12)Oc1ccc(/C=C/c2cc(OC(=O)Cc3c[nH]c4ccccc34)cc(OC(=O)Cc3c[nH]c4ccccc34)c2)cc1 [Compound 260, 4-[(1E)-2-[3,5-bis({[2-(1H-indol-3-yl)acetyl]oxy})phenyl]ethenyl]phenyl 2-(1H-indol-3-yl)acetate]
Assay 3 (% Remaining at 24 h) [2]: A (A: <25% of the tested compound remaining)

CCC(=O)OC[C@H]1O[C@@H](OC)[C@H](OC(=O)CC)[C@@H](OC(=O)CC)[C@H]1OC(=O)CC [Compound 94, [(2R,3S,4S,5R,6R)-6-methoxy-3,4,5-tris(propanoyloxy)oxan-2-yl]methyl Propanoate]
Assay 2 (SIF) (% @ Remaining 4 hours) [1]: A (A: <25% of the tested compound remaining)
Assay 3 (% Remaining at 24 h) [2]: A (A: <25% of the tested compound remaining)

CCCC(=O)OC[C@H]1O[C@@H](OC)[C@H](OC(=O)CCC)[C@@H](OC(=O)CCC)[C@@H]1OC(=O)CCC [Compound 91, [(2R,3R,4S,5R,6R)-3,4,5-tris(butanoyloxy)-6-methoxyoxan-2-yl]methyl Butanoate]
Assay 2 (SIF) (% @ Remaining 4 hours) [1]: A (A: <25% of the tested compound remaining)
Assay 3 (% Remaining at 24 h) [2]: A (A: <25% of the tested compound remaining)

CCCC(=O)OC[C@H]1O[C@H](OC)[C@H](OC(=O)CCC)[C@@H](OC(=O)CCC)[C@H]1OC(=O)CCC [Compound 89, [(2R,3S,4S,5R,6S)-3,4,5-tris(butanoyloxy)-6-methoxyoxan-2-yl]methyl Butanoate]
Assay 2 (SIF) (% @ Remaining 4 hours) [1]: A (A: <25% of the tested compound remaining)
Assay 3 (% Remaining at 24 h) [2]: A (A: <25% of the tested compound remaining)

O=C(CCc1c[nH]c2ccccc12)O[C@@H]1O[C@H](C(=O)O)[C@@H](OC(=O)CCc2c[nH]c3ccccc23)[C@H](OC(=O)CCc2c[nH]c3ccccc23)[C@H]1OC(=O)CCc1c[nH]c2ccccc12 [Compound 82, (2S,3S,4S,5R,6S)-3,4,5,6-tetrakis({[3-(1H-indol-3-yl)propanoyl]oxy})oxane-2-carboxylic Acid]
Assay 2 (SIF) (% @ Remaining 4 hours) [1]: A (A: <25% of the tested compound remaining)
Assay 3 (% Remaining at 24 h) [2]: A (A: <25% of the tested compound remaining)

CCC(=O)O[C@@H]1[C@H](OC(=O)CC)C=C(C(=O)O)C[C@H]1OC(=O)CC [Compound 254, (3R,4S,5R)-3,4,5-tris(propanoyloxy)cyclohex-1-ene-1-carboxylic Acid]
Assay 3 (% Remaining at 24 h) [2]: B (B: 25-75% of the tested compound remaining)

[2H]C([2H])([2H])C([2H])([2H])CC(=O)O[C@@H]1[C@@H](OC(=O)CC([2H])([2H])C([2H])([2H])[2H])[C@H](Oc2ccc(N)cc2C(=O)O)OC[C@H]1OC(=O)CC([2H])([2H])C([2H])([2H])[2H] [Compound 230, 5-amino-2-{[(2S,3R,4S,5R)-3,4,5-tris[(3,3,4,4,4-^2H5)butanoyloxy]oxan-2-yl]oxy}benzoic Acid]
Assay 3 (% Remaining at 24 h) [2]: B (B: 25-75% of the tested compound remaining)

CCCC(=O)O[C@@H]1[C@@H](OC(=O)CCC)[C@H](OC)OC[C@H]1OC(=O)CCC [Compound 121, (2R,3R,4S,5R)-4,5-bis(butanoyloxy)-2-methoxyoxan-3-yl Butanoate]
Assay 2 (SIF) (% @ Remaining 4 hours) [1]: A (A: <25% of the tested compound remaining)
Assay 3 (% Remaining at 24 h) [2]: A (A: <25% of the tested compound remaining)

CCCC(=O)Nc1ccc(O)c(C(=O)O)c1 [Compound 40, 5-(butanoylamino)-2-hydroxy-benzoic Acid]
Assay 2 (SIF) (% @ Remaining 4 hours) [1]: C (C: >75% of the tested compound remaining)
Assay 1 (SGF) (% Remaining @ 1 hours) [3]: C (C: >75% of the tested compound remaining)

Cc1c(C)c2c(c(C)c1OC(=O)C1OCC[C@@H](C)O1)CC[C@@](C)(CCC[C@H](C)CCC[C@H](C)CCCC(C)C)O2 (stereo partly drawn) [Compound 66, [(2R)-2,5,7,8-tetramethyl-2-[(4R,8R)-4,8,12-trimethyltridecyl]chroman-6-yl] (4R)-4-methyl-1,3-dioxane-2-carboxylate]
Assay 2 (SIF) (% @ Remaining 4 hours) [1]: A (A: <25% of the tested compound remaining)
Assay 1 (SGF) (% Remaining @ 1 hours) [3]: C (C: >75% of the tested compound remaining)

CCCC(=O)Oc1ccc(/C=C/c2cc(OC(=O)CCC)cc(OC(=O)CCC)c2)cc1 [Compound 1, [4-[(E)-2-[3,5-di(butanoyloxy)phenyl]vinyl]phenyl] butanoate]
Assay 2 (SIF) (% @ Remaining 4 hours) [1]: B (B: 25-75% of the tested compound remaining)
Assay 1 (SGF) (% Remaining @ 1 hours) [3]: C (C: >75% of the tested compound remaining)

CCCC(=O)O[C@H]1[C@H](OC(=O)CCC)COC(O)[C@@H]1OC(=O)CCC (stereo partly drawn) [Compound 190, (3R,4S,5R)-4,5-bis(butanoyloxy)-2-hydroxyoxan-3-yl Butanoate]
Assay 2 (SIF) (% @ Remaining 4 hours) [1]: A (A: <25% of the tested compound remaining)
Assay 3 (% Remaining at 24 h) [2]: A (A: <25% of the tested compound remaining)

O=C(CCc1c[nH]c2ccccc12)O[C@@H]1[C@H](OC(=O)CCc2c[nH]c3ccccc23)C=C(C(=O)O)C[C@H]1OC(=O)CCc1c[nH]c2ccccc12 [Compound 253, (3R,4S,5R)-3,4,5-tris({[3-(1H-indol-3-yl)propanoyl]oxy})cyclohex-1-ene-1-carboxylic Acid]
Assay 2 (SIF) (% @ Remaining 4 hours) [1]: B (B: 25-75% of the tested compound remaining)
Assay 1 (SGF) (% Remaining @ 1 hours) [3]: B (B: 25-75% of the tested compound remaining)
